For 22 molecules, IC50 results are on record in US12570666B2, “Furoindazole derivatives” (Bayer Aktiengesellschaft, priority 2019, dated 2026).

T1 sequence (Q9NQS5 whole entry): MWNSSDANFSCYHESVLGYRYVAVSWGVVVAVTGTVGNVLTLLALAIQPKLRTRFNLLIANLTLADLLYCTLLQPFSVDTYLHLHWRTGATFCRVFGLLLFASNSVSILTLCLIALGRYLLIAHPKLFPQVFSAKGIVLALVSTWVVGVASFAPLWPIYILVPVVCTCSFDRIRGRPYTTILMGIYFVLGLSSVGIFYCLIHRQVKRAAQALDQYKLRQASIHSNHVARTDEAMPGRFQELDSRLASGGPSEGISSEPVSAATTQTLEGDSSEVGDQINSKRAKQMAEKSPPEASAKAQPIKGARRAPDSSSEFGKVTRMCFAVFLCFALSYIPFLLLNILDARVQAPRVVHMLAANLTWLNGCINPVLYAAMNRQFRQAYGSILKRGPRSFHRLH

The experiment has as its target T1, human GPR84 receptor (Homo sapiens, UniProt Q9NQS5).
T1 construct: frozen aliquots prepared by acCELLerate; host or cells: CHO-K1
Nature of the experiment: cAMP HTRF assay for identification of cellular GPR84 antagonists. To be noted: CHO-K1 cells stably expressing human GPR84; Forskolin + agonist 6-OAU (EC80); average or median values. The class given is cell-based. Summed up:
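Forskolin-stimulated CHO-K1 cells stably expressing human GPR84, agonist-suppressed cAMP measured by HTRF (665/620 ratio) after lysis. Compounds at 11 concentrations, 20 μM to 0.07 nM, duplicate; normalized to DMSO and no-agonist controls; IC50 by 4-parameter fit.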
In the case of `Cc1cnc(CNC(=O)c2oc3c(c2C(F)(F)F)-c2nn(C[C@H]4COCCO4)cc2[C@H](C)C3)cn1` (single isomer, unassigned) [Example 258, (4R or 4S)-2-{[(2S)-1,4-dioxan-2-yl]methyl}-4-methyl-N-[(5-methylpyrazin-2-yl)methyl]-8-(trifluoromethyl)-4,5-dihydro-2H-furo[2,3-g]indazole-7-carboxamide], the half-maximal inhibitory concentration (IC50) (usually the concentration needed to halve the response being measured) worked out at 5 nM.

For the molecule `C[C@@H]1Cc2oc(C(=O)NCc3nccs3)c(C(F)(F)F)c2-c2nn(C[C@H]3COCCO3)cc21` (single isomer, unassigned) [Example 259, (4R or 4S)-2-{[(2S)-1,4-dioxan-2-yl]methyl}-4-methyl-N-[(1,3-thiazol-2-yl)methyl]-8-(trifluoromethyl)-4,5-dihydro-2H-furo[2,3-g]indazole-7-carboxamide], the half-maximal inhibitory concentration (IC50) is 5 nM.

Regarding `C[C@@H]1Cc2oc(C(=O)NCc3cnccn3)c(C(F)(F)F)c2-c2nn(C[C@H]3COCCO3)cc21` (single isomer, unassigned) [Example 260, (4R or 4S)-2-{[(2S)-1,4-dioxan-2-yl]methyl}-4-methyl-N-[(pyrazin-2-yl)methyl]-8-(trifluoromethyl)-4,5-dihydro-2H-furo[2,3-g]indazole-7-carboxamide], the IC50 was found to be 24 nM.

In the case of `C[C@@H]1Cc2oc(C(=O)NCc3cocn3)c(C(F)(F)F)c2-c2nn(C[C@H]3COCCO3)cc21` (single isomer, unassigned) [Example 261, (4R or 4S)-2-{[(2S)-1,4-dioxan-2-yl]methyl}-4-methyl-N-[(1,3-oxazol-4-yl)methyl]-8-(trifluoromethyl)-4,5-dihydro-2H-furo[2,3-g]indazole-7-carboxamide], the IC50 was found to be 63 nM.

Turning to `C[C@@H]1Cc2oc(C(=O)NCc3cnc(C(F)(F)F)nc3)c(C(F)(F)F)c2-c2nn(C[C@H]3COCCO3)cc21` (single isomer, unassigned) [Example 262, (4R or 4S)-2-{[(2S)-1,4-dioxan-2-yl]methyl}-4-methyl-8-(trifluoromethyl)-N-{[2-(trifluoromethyl)pyrimidin-5-yl]methyl}-4,5-dihydro-2H-furo[2,3-g]indazole-7-carboxamide], the IC50 was found to be 195 nM.

Take `C[C@@H]1Cc2oc(C(=O)NC[C@@H]3COCCO3)c(C(F)(F)F)c2-c2nn(CC3CCOCC3)cc21` (single isomer, unassigned) [Example 263, (4R or 4S)-N-{[(2R)-1,4-dioxan-2-yl]methyl}-4-methyl-2-[(oxan-4-yl)methyl]-8-(trifluoromethyl)-4,5-dihydro-2H-furo[2,3-g]indazole-7-carboxamide]: the 50% inhibitory concentration (IC50) turned out to be 13 nM.

On to `Cc1c(C(=O)NC[C@@H]2COCCO2)oc2c1-c1nn(C[C@H]3COCCO3)cc1[C@H](C(F)(F)F)C2` (single isomer, unassigned) [Example 265-1, (4R or 4S)-N-{[(2R)-1,4-dioxan-2-yl]methyl}-2-{[(2S)-1,4-dioxan-2-yl]methyl}-8-methyl-4-(trifluoromethyl)-4,5-dihydro-2H-furo[2,3-g]indazole-7-carboxamide], for which the half-maximal inhibitory concentration (IC50) came to 185 nM.

For `Cc1c(C(=O)NC[C@@H]2COCCO2)oc2c1-c1nn(C[C@H]3COCCO3)cc1[C@H](C(F)(F)F)C2` (single isomer, unassigned) [Example 265-2, (4R or 4S)-N-{(2R)-1 ,4-dioxan-2-yl]methyl}-2-{[(2S)-1,4-dioxan-2-yl]methyl}-8-methyl-4-(trifluoromethyl)-4,5-dihydro-2H-furo[2,3-g]indazole-7-carboxamide], the IC50 was determined as 1210 nM.

`C[C@@H]1Cc2oc(C(=O)NC[C@@H]3CCCO3)c(C(F)(F)F)c2-c2nn(CC3CCN(C(=O)C4CC4)CC3)cc21` (single isomer, unassigned) [Example 290, (4R or 4S)-2-{[1-(cyclopropanecarbonyl)piperidin-4-yl]methyl}-4-methyl-N-{[(2S)-oxolan-2-yl]methyl}-8-(trifluoromethyl)-4,5-dihydro-2H-furo[2,3-g]indazole-7-carboxamide]: the IC50 came out at 4 nM.

Turning to `C[C@@H]1Cc2oc(C(=O)NC[C@@H]3COCCO3)c(C(F)(F)F)c2-c2nn(CC3CCN(C(=O)C4CC4)CC3)cc21` (single isomer, unassigned) [Example 291, (4R or 4S)-2-{[1-(cyclopropanecarbonyl)piperidin-4-yl]methyl}-N-{[(2R)-1,4-dioxan-2-yl]methyl}-4-methyl-8-(trifluoromethyl)-4,5-dihydro-2H-furo[2,3-g]indazole-7-carboxamide], the IC50 came out at 5 nM.

`CC(=O)N1CCC(Cn2cc3c(n2)-c2c(oc(C(=O)NC[C@@H]4CCCO4)c2C(F)(F)F)C[C@H]3C)CC1` (single isomer, unassigned) [Example 292, (4R or 4S)-2-[(1-acetylpiperidin-4-yl)methyl]-4-methyl-N-{[(2S)-oxolan-2-yl]methyl}-8-(trifluoromethyl)-4,5-dihydro-2H-furo[2,3-g]indazole-7-carboxamide]: the half-inhibitory concentration (IC50) came to 6 nM.

Consider `C[C@@H]1Cc2oc(C(=O)NC[C@@H]3CCCO3)c(C(F)(F)F)c2-c2nn(CC3CCN(C(=O)C4(O)CC4)CC3)cc21` (single isomer, unassigned) [Example 293, (4R or 4S)-2-{[1-(1-hydroxycyclopropane-1-carbonyl)piperidin-4-yl]methyl}-4-methyl-N-{[(2S)-oxolan-2-yl]methyl}-8-(trifluoromethyl)-4,5-dihydro-2H-furo[2,3-g]indazole-7-carboxamide], for which the half-maximal inhibitory concentration (IC50) stood at 7 nM.

For `CC(=O)N1CCC(Cn2cc3c(n2)-c2c(oc(C(=O)NC[C@@H]4COCCO4)c2C(F)(F)F)C[C@H]3C)CC1` (single isomer, unassigned) [Example 294, (4R or 4S)-2-[(1-acetylpiperidin-4-yl)methyl]-N-{[(2R)-1,4-dioxan-2-yl]methyl}-4-methyl-8-(trifluoromethyl)-4,5-dihydro-2H-furo[2,3-g]indazole-7-carboxamide], the IC50 stood at 8 nM.

In the case of `C[C@@H]1Cc2oc(C(=O)NC[C@@H]3COCCO3)c(C(F)(F)F)c2-c2nn(CC3CCN(C(=O)C4(O)CC4)CC3)cc21` (single isomer, unassigned) [Example 295, (4R or 4S)-N-{[(2R)-1,4-dioxan-2-yl]methyl}-2-{[1-(1-hydroxycyclopropane-1-carbonyl)piperidin-4-yl]methyl}-4-methyl-8-(trifluoromethyl)-4,5-dihydro-2H-furo[2,3-g]indazole-7-carboxamide], the IC50 was 8 nM.

Consider `CCC(=O)C(=O)N1CCC(Cn2cc3c(n2)-c2c(oc(C(=O)NC[C@@H]4COCCO4)c2C(F)(F)F)C[C@H]3C)CC1` (single isomer, unassigned) [Example 296, (4R or 4S)-N-{[(2R)-1,4-dioxan-2-yl]methyl}-4-methyl-2-{[1-(2-oxobutanoyl)piperidin-4-yl]methyl}-8-(trifluoromethyl)-4,5-dihydro-2H-furo[2,3-g]indazole-7-carboxamide], for which the half-maximal inhibitory concentration (IC50) stood at 9 nM.

In the case of `CCC(=O)C(=O)N1CCC(Cn2cc3c(n2)-c2c(oc(C(=O)NC[C@@H]4CCCO4)c2C(F)(F)F)C[C@H]3C)CC1` (single isomer, unassigned) [Example 297, (4R or 4S)-4-methyl-2-{[1-(2-oxobutanoyl)piperidin-4-yl]methyl}-N-{[(2S)-oxolan-2-yl]methyl}-8-(trifluoromethyl)-4,5-dihydro-2H-furo[2,3-g]indazole-7-carboxamide], the concentration for half-maximal inhibition (IC50) amounted to 13 nM.

`C[C@@H]1Cc2oc(C(=O)NC[C@@H]3CCCO3)c(C(F)(F)F)c2-c2nn(CC3CCN(C(=O)C4(C)CC4)CC3)cc21` (single isomer, unassigned) [Example 298, (4R or 4S)-4-methyl-2-{[1-(1-methylcyclopropane-1-carbonyl)piperidin-4-yl]methyl}-N-{[(2S)-oxolan-2-yl]methyl}-8-(trifluoromethyl)-4,5-dihydro-2H-furo[2,3-g]indazole-7-carboxamide]: the IC50 was 9 nM.

For `C[C@@H]1Cc2oc(C(=O)NC[C@@H]3COCCO3)c(C(F)(F)F)c2-c2nn(CC3CCN(C(=O)C4(C)CC4)CC3)cc21` (single isomer, unassigned) [Example 299, (4R or 4S)-N-{[(2R)-1,4-dioxan-2-yl]methyl}-4-methyl-2-{[1-(1-methylcyclopropane-1-carbonyl)piperidin-4-yl]methyl}-8-(trifluoromethyl)-4,5-dihydro-2H-furo[2,3-g]indazole-7-carboxamide], the 50% inhibitory concentration (IC50) worked out at 24 nM.

As to `Cc1ncc(CNC(=O)c2oc3c(c2C(F)(F)F)-c2nn(C[C@H]4COCCO4)cc2[C@H](C)C3)cn1` (single isomer, unassigned) [Example 302, (4R or 4S)-2-{[(2S)-1,4-dioxan-2-yl]methyl}-4-methyl-N-[(2-methylpyrimidin-5-yl)methyl]-8-(trifluoromethyl)-4,5-dihydro-2H-furo[2,3-g]indazole-7-carboxamide], the IC50 was 1510 nM.

Take `Cc1cnc(CNC(=O)c2oc3c(c2C(F)(F)F)-c2nn(C[C@H]4COCCO4)cc2[C@H](C)C3)nc1` (single isomer, unassigned) [Example 303, (4R or 4S)-2-{[(2S)-1,4-dioxan-2-yl]methyl}-4-methyl-N-[(5-methylpyrimidin-2-yl)methyl]-8-(trifluoromethyl)-4,5-dihydro-2H-furo[2,3-g]indazole-7-carboxamide]: the 50% inhibitory concentration (IC50) stood at 6 nM.

In the case of `C[C@@H]1Cc2oc(C(=O)NCc3ncccn3)c(C(F)(F)F)c2-c2nn(C[C@H]3COCCO3)cc21` (single isomer, unassigned) [Example 304], the IC50 is 13 nM.

Regarding `CC1COC(CNC(=O)c2oc3c(c2C(F)(F)F)-c2nn(C[C@H]4COCCO4)cc2[C@H](C)C3)C1` (single isomer, unassigned) [Example 313, 2,5-anhydro-1,3,4-trideoxy-1-{[(4R or 4S)-2-{[(2S)-1,4-dioxan-2-yl]methyl}-4-methyl-8-(trifluoromethyl)-4,5-dihydro-2H-furo[2,3-g]indazole-7-carbonyl]amino}-4-methylpentitol], the IC50 turned out to be 21 nM.
